Patent publication US20120277238A1, “PHARMACEUTICAL COMPOSITION CONTAINING FUSED HETERO-RING DERIVATIVE” (Shionogi & Co., Ltd, priority 2009, published 2012)

Tests used:
human HRH4 = target: T1, human HRH4 (Homo sapiens, UniProt Q9H3N8); assay: Histamine H4 receptor binding test ([3H]-Histamine radioligand binding); conditions: membrane fraction of CHO-K1 expressing human HRH4; [3H]-Histamine 15 nM; Ki by Cheng-Prusoff
T1 construct: purchased PerkinElmer
Method: Membrane fraction of CHO-K1 stably expressing human HRH4 was purchased from PerkinElmer. Radioligand binding assay was performed in 96 well polypropylene assay plates in a total assay volume of 150 μL. Membrane suspension (15 μg of protein) was mixed with [3H]-Histamine (PerkinElmer) at 15 nM and compounds at various concentration in 50 mM Tris-HCl pH7.4, 5 mM EDTA buffer. Assays were incubated for 60 min at room temperature, then the reactions were terminated by rapid filtration over 96-well GF/B filter plates (PerkinElmer) presoaked in 0.5% polyethyleneimine. Unbound radioactivity was eliminated by six times of wash with 350 μL of ice-cold 50 mM Tris pH7.4 buffer. When the filter plates were dried, Microscint-MS liquid scintillation fluid (PerkinElmer) was added to each well and retained radioactivity plates were counted in a Topcount liquid scintillation counter (PerkinElmer). Specific binding was calculated by subtracting non-specific binding determined in the presence of 100 μM unlabeled histamine from total count.
The resulting data were analyzed for IC50 using the non-linear regression on XLfit.
Affinity values (Ki) were then determined by Cheng-Prusoff equation.

CYP3A4 = CYP3A4 (Homo sapiens, UniProt P08684); assay: CYP3A4 fluorescent MBI test; type: in vitro ADME; design: host or cells: Escherichia coli; conditions: prereaction 0 or 30 minutes; substrate 7-BFC; CYP3A4 expressed in Escherichia coli
CYP3A4, sequence (P08684 whole entry): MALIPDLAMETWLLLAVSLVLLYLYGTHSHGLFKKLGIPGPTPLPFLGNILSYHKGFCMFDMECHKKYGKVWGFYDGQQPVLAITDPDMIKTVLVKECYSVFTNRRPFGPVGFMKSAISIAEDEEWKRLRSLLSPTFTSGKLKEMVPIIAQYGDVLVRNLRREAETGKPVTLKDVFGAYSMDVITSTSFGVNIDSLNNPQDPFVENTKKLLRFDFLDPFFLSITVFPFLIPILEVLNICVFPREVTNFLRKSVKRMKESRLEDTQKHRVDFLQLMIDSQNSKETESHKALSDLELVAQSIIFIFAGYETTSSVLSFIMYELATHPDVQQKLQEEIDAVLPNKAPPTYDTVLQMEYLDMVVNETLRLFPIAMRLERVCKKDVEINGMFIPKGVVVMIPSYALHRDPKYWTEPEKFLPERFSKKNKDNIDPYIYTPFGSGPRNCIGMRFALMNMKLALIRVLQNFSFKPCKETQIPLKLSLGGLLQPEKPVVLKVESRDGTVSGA
Method: The CYP3A4 fluorescent MBI test is a test of investigating enhancement of CYP3A4 inhibition of a compound by a metabolism reaction, and the test was performed using, as CYP3A4 enzyme expressed in Escherichia coli and employing, as an index, a reaction in which 7-benzyloxytrifluoromethylchmarin (BFC) is debenzylated by the CYP3A4 enzyme to produce a metabolite, 7-hydroxytrifluoromethylchmarin (HFC) emitting fluorescent light.
The reaction conditions were as follows: substrate, 5.6 μmol/L 7-BFC; prereaction time, 0 or 30 minutes; reaction time, 15 minutes; reaction temperature, 25° C. […]
An enzyme in a K-Pi buffer (pH 7.4) and a test drug solution as a pre-reaction solution were added to a 96-well plate at the composition of the pre-reaction, a part of it was transferred to another 96-well plate so that it was 1/10 diluted by a substrate in a K-Pi buffer, NADPH as a co-factor was added to initiate a reaction as an index (without preincubation) and, after a predetermined time of a reaction, acetonitrile/0.5 mol/L Tris(trishydroxyaminomethane)=4/1 was added to stop the reaction. […] For the plate on which each index reaction had been performed, a fluorescent value of 7-HFC which is a metabolite was measured with a fluorescent plate reader. […]

[1] = Metabolism stability test (human); type: in vitro ADME; conditions: 30 minutes, 37° C.
Method: Using commercially available pooled human hepatic microsomes, prepared in accordance with Japanese journal of pharmacology, 33 (1), p. 41-56, February 1983, a test compound was reacted for a constant time, a remaining rate was calculated by comparing a reacted sample and an unreacted sample, thereby, a degree of metabolism in liver was assessed.
A reaction was performed (oxidative reaction) at 37° C. for 0 minute or 30 minutes in the presence of 1 mmol/L NADPH in 0.2 mL of a buffer (50 mmol/L tris-HCl pH 7.4, 150 mmol/L potassium chloride, 10 mmol/L magnesium chloride) containing 0.5 mg protein/mL of human liver microsomes. After the reaction, 50 μL of the reaction solution was added to 100 μL of a methanol/acetonitrile=1/1 (v/v), mixed and centrifuged at 3000 rpm for 15 minutes. The test compound in the supernatant was quantified by LC/MS/MS, and a remaining amount of the test compound after the reaction was calculated, letting a compound amount at 0 minute reaction time to be 100%. Hydrolysis reaction was performed in the absence of NADPH and glucuronidation reaction was in the presence of 5 mM UDP-glucuronic acid in place of NADPH, followed by similar operations.

[2] = Metabolism stability test (rat); type: in vitro ADME; conditions: 30 minutes, 37° C.
[3] = Bioavailability (BA) test and total body clearance test; type: in vivo; conditions: plasma, rat
Method: (1) Animal: mice or rats (2) Breeding conditions: mice and rats are allowed to freely take solid feed and sterilized tap water (3) Dose and grouping: orally or intravenously administered at a predetermined dose; grouping is as follows (Dose depends on the compound)
Oral administration: 1 to 30 mg/kg (n=2 to 3)
Intravenous administration: 0.5 to 10 mg/kg (n=2 to 3)
(4) Preparation of dosing solution: for oral administration, in a solution or a suspension state; for intravenous administration, in a solubilized state (5) Administration method: in oral administration, forcedly administer into ventriculus with oral probe; in intravenous administration, administer from caudal vein with a needle-equipped syringe (6) Evaluation items: blood is collected over time, and the plasma concentration of drug is measured by LC/MS/MS (7) Statistical analysis: regarding the transition of the plasma concentration, the area under the plasma concentration-time curve (AUC) and total body clearance (Clt) are calculated by non-linear least squares program WinNonlin (Registered trademark), and the bioavailability (BA) is calculated from the AUCs of the oral administration group and intravenous administration group
The following values show the rat BA of the compounds on oral 1 mg/kg dosage.

[4] = test compound concentration 2 μmol/L
[5] = test compound concentration 0.5 μmol/L

| Ki (human HRH4) [nM] | Structure (SMILES) | further results |
| --- | --- | --- |
| 180 | CN1CCN(C(=O)c2cc3c([nH]2)C(C)(O)CCC3)CC1 (stereo not drawn) [Compound I-040] | – |
| 380 | CN1CCN(C(=O)c2cc3c([nH]2)CCOC3)CC1 [Compound I-052] | – |
| 86 | CC1CCc2[nH]c(C(=O)N3CCN(C)CC3)cc2C1 (stereo not drawn) [Compound I-015] | – |
| 250 | CN1CCN(C(=O)c2cc3c([nH]2)CCCC3O)CC1 (stereo not drawn) [Compound I-051] | – |
| 88 | CN1CCN(C(=O)c2cc3c([nH]2)C(O)CCC3)CC1 (stereo not drawn) [Compound I-036] | – |
| 20 | CN1CCN(C(=O)c2cc3c([nH]2)CC(O)CC3)CC1 (stereo not drawn) [Compound I-075] | – |
| 70 | CN1CCN(C(=O)c2cc3c([nH]2)CCC(C)(C)C3)CC1 [Compound I-022] | – |
| 110 | CN1CCN(C(=O)c2cc3c([nH]2)CCCC3)CC1 [Compound I-048] | – |
| 680 | CN1CCN(C(=O)c2cc3c([nH]2)C(O)CC3)CC1 (stereo not drawn) [Compound I-012] | remaining rate [1, 5]: 94%; remaining rate [2, 5]: 92% |
| 22 | CN1CCN(C(=O)c2cc3c([nH]2)CCC(Cl)C3)CC1 (stereo not drawn) [Compound I-020] | – |
| 100 | CC1CCCc2cc(C(=O)N3CCN(C)CC3)[nH]c21 (stereo not drawn) [Compound I-026] | – |
| 300 | CN1CCN(C(=O)c2cc3c([nH]2)CCCCC3)CC1 [Compound I-013] | – |
| 440 | CN1CCN(C(=O)c2cc3c([nH]2)C(C)(O)CC3)CC1 (stereo not drawn) [Compound I-057] | – |
| 570 | CC1CCc2cc(C(=O)N3CCN(C)CC3)[nH]c2C1 (stereo not drawn) [Compound I-017] | – |
| 370 | CN1CCN(C(=O)c2cc3c([nH]2)CCC(=O)C3)CC1 [Compound I-016] | – |
| 710 | CN1CCN(C(=O)c2cc3c([nH]2)C(=O)CCC3)CC1 [Compound I-024] | – |
| 590 | CCC1(O)CCCc2cc(C(=O)N3CCN(C)CC3)[nH]c21 (stereo not drawn) [Compound I-041] | – |
| 14 | CN1CCN(C(=O)c2cc3c([nH]2)CCC(Cl)(Cl)C3)CC1 [Compound I-047] | – |

Further lines, the compound ahead of its results:

| Structure (SMILES) | Ki (human HRH4) [nM] | further results |
| --- | --- | --- |
| O=C(c1nc2c([nH]1)CCCC2)N1CCNCC1 [Compound I-008] | 420 | – |
| CC1CCCc2[nH]c(C(=O)N3CCN(C)CC3)cc21 (stereo not drawn) [Compound I-009] | 150 | – |
| CN1CCN(C(=O)c2cc3c([nH]2)CC=C(F)C3)CC1 [Compound I-065] | 35 | – |
| Cc1ccc(S(=O)(=O)OC2CCc3[nH]c(C(=O)N4CCN(C)CC4)cc3C2)cc1 (stereo not drawn) [Compound I-019] | 200 | – |
| O=C(c1cc2c([nH]1)CCC(F)(F)C2)N1CCNCC1 [Compound I-056] | 130 | – |
| O=C(c1cc2c([nH]1)CCC(Cl)(Cl)C2)N1CCNCC1 [Compound I-055] | 23 | – |
| CN1CCN(C(=O)c2cc3c([nH]2)CCC3O)CC1 (stereo not drawn) [Compound I-010] | – | CYP3A4 MBI: difference between IC50 values (CYP3A4): (−) (when the difference is 3 μM or less, this was defined as (−)) |
| O=C(c1cc2c([nH]1)CCCC2)N1CCNCC1 [Compound I-005] | 250 | – |
| C#CC1=Cc2cc(C(=O)N3CCN(C)CC3)[nH]c2CC1 [Compound I-033] | 320 | – |
| O=C(c1cc2c([nH]1)CCCC2)N1C[C@H]2CCCN[C@H]2C1 [Compound I-062] | 260 | – |
| CN1CCN(C(=O)c2cc3c([nH]2)CCC(C(F)(F)F)C3)CC1 (stereo not drawn) [Compound I-045] | 910 | – |
| CN1CCN(C(=O)c2cc3c([nH]2)[C@H]2CC[C@@H]3C2)CC1 [Compound I-046] | 290 | – |
| CC(=O)n1c(C(=O)N2CCN(C)CC2)cc2c1CCCC2 [Compound I-059] | 270 | – |
| O=C(c1cc2c([nH]1)CCC(Cl)(Cl)C2O)N1CCNCC1 (stereo not drawn) [Compound I-073] | 980 | remaining rate [1, 4]: 99%; remaining rate [2, 4]: 79%; bioavailability ([3]; oral 1 mg/kg dosage): 59%; clearance ([3]; intravenous, read-out: Clt (total body clearance)): 24 mL/min/kg |
| COC1CCc2[nH]c(C(=O)N3CCN(C)CC3)cc2C1 (stereo not drawn) [Compound I-023] | 990 | – |
| O=C(c1cc2c([nH]1)CCCC2)N1CC2CCCNC2C1 (stereo not drawn) [Compound I-006] | 230 | – |
| CC(C)C(=O)n1c(C(=O)N2CCN(C)CC2)cc2c1CCCC2 [Compound I-061] | 210 | – |
| CN1CCN(C(=O)c2cc3c([nH]2)CCC(F)C3O)CC1 (stereo not drawn) [Compound I-053] | 140 | – |
| COC1c2cc(C(=O)N3CCNCC3)[nH]c2CCC1(Cl)Cl (stereo not drawn) [Compound I-067] | 480 | – |
| CN1CCN(C(=O)c2cc3c([nH]2)CCC(F)(F)C3O)CC1 (stereo not drawn) [Compound I-054] | 230 | – |
| O=C(c1cc2c([nH]1)CCC(F)(F)C2O)N1CCN2CCCC2C1 (stereo not drawn) [Compound I-068] | 520 | – |
| CCOC1c2cc(C(=O)N3C[C@H]4CCCN[C@H]4C3)[nH]c2CCC1(F)F (stereo partly drawn) [Compound I-070] | 270 | – |
| CN1CCN(C(=O)c2nc3c([nH]2)CCCC3)CC1 [Compound I-049] | 150 | – |
| CN1CCN(C(=O)c2cc3c([nH]2)CC(O)C(Cl)(Cl)C3)CC1 (stereo not drawn) [Compound I-076] | 25 | – |
| CN1CCN(C(=O)c2cc3c([nH]2)CCC=C3)CC1 [Compound I-021] | 120 | – |
| CN1CCN(C(=O)c2cc3c([nH]2)CCC(Cl)(Cl)C3O)CC1 (stereo not drawn) [Compound I-066] | 350 | – |
| COC1c2cc(C(=O)N3CCN(C)CC3)[nH]c2CCC1(Cl)Cl (stereo not drawn) [Compound I-069] | 220 | – |
| CNC1CCN(C(=O)c2cc3c([nH]2)CCCC3)C1 (stereo not drawn) [Compound I-003] | 680 | – |
| CN1CCN(C(=O)c2cc3c([nH]2)CCC(c2ccccc2)=C3)CC1 [Compound I-027] | 760 | – |
| O=C(c1cc2c([nH]1)CCC(F)(F)C2O)N1C[C@H]2CCCN[C@H]2C1 (stereo partly drawn) [Compound I-064] | 180 | – |
